The values that follow come from patent US20120237614A1, “PEPTIDE ABLE TO DISRUPT THE PROTEIN COMPLEX BETWEEN THE HIS273 MUTADED P53 PROTEIN AND THE ONCOSUPPRESSIVE P73 PROTEIN IN TUMOR CELLS AND THERAPEUTIC USES THEREOF” (priority 2009, published 2012).

The test system of one test is HT29 cells. Kind of test: In vivo tumorigenicity test (xenograft of peptide transfected HT29 cells). The note with it: naked mice, s.c. 5×10^5 peptide transfected cells/mouse, 5 weeks. As for the experimental part:
In order to assay SIMP1 in vivo antitumor activity nu/nu […] mice were administered subcutaneously with SIMP1, SIMP1KO and SIMP5M transfected HT29 cells (5.0×10^5 cells/mouse). Tumour growth has been monitored over 5 weeks.
Xenograft assays have been carried out by administration to naked mice subcutaneous injections containing 5×10^5 cells/mouse of SIMP1, SIMP1KO and SIMP5M peptide transfected colon and rectum tumour human cell line (nu/nu CD1 Charles River mice). The tumour growth together with animal body weight is monitored for 5 weeks in order to estimate the chronic toxicity
The experiments have been carried out by administration to naked mouse (nu/nu CD1 Charles River mice) subcutaneous injections containing 5×10^5 cells/mouse. The tumour growth has been monitored together with animal body weight for 5 weeks in order to estimate possible not occurred chronic toxic effects (FIG. 5).

In test [1] the test system is tumour cell lines containing His-175 or His-273 p53 mutation. Kind of test: Summary of activity by p53 mutation type. Format: cell-based. The conditions noted are these: for activity on p53 mutant categories (His-175, His-273): summary statement; for specificity for p53 mutation type: FIG. 6 summary. The source says: SIMP1M: FQQSSTARSATW (SEQ ID NO:16) (MW: 1369, PI: 9.75) peptide is a mutated version of SIMP1 peptide wherein K138 residue has been replaced by Arginine.
FIG. 6 that SIMP peptides and by-products thereof displace protein complexes involving mutated protein p53 and p73.

The target of a further test is GST-p53 His175 (Homo sapiens, UniProt P04637, R175H). Kind of test: Dot immunobinding test with purified GST-p53 fusion proteins. Format: binding. The note with it: 20 μg GST fusion purified proteins. As to the method: (A) Total extracts deriving from SKBR3, (His-175) HT29, (His-273) and H1299 (p53 free) tumour cells have been incubated (1 mg) on SIMP1 and SIMPIKO peptide labelled nitrocellulose membrane and Dot Blot analysed. In (B) the membranes have been incubated with 20 μg of wild type WT GST-p53 purified protein or GST-p53 His-175, GST-p53-His-175, 74-298 or GST alone. In both experiments dots have been detected by labelling the membranes with anti-p53 (DO1) antibody
Nitrocellulose membranes have been cut, washed with water and blotted on the paper filters. The peptides at 250 mM concentration have been transferred on membrane. Labelled membrane has been washed for 10 min. with TBST buffer (10 mM Tris-HCl pH 7.4, 150 mM NaCl, 0.05% (v/v) Tween-20) and then blocked for 45 min with TBST/5% milk. Then the membranes have been incubated for 6 hours at 4° C. in shaker with 1 mg of total protein extract or 20 μg of GST fusion purified proteins. Successively the membranes have been washed with TBST buffer and decorated with anti-p53 antibody (DO1) as a primary antibody. As secondary antibody horse peroxidase conjugated goat antibody has been used. Immunolabelled lanes have been detected using chemiluminescence analysis (Pierce).
The membranes decorated with SIMP peptides also have been incubated with GST-p53 His175, GST p53His74-298, GST WTp53 fusion proteins, GST control.

The test system of test [2] is MDA-MB468 breast and HT29 colon carcinoma cell lines. The test is described as follows: Cell viability / proliferation assays after peptide transfection. Type of test: cell-based, human. The note with it: peptide transfected cells. As for the experimental part:
(A) In order to verify the SIMPI peptide specificity, independently from the cellular context, we tested SIMP1 peptides in some Adriamicyn treated colon carcinoma HT29 (His-273). cell lines. The cells have been transfected using a mixture containing lipofectamine, pLUC-BAX plasmid, β-galactosidase expression vector, SIMP1 and SIMP5M control peptides. 24 hours post-transfection, have been treated with 3 μM Adriamicyn. (B-C). Viability and inhibition assays have been carried out after transfection using SIMP1 and SIMP5M peptides in HT29 (colon cancer) and MDA-MB-468 (breast cancer) cell lines
Cell viability has been tested using Trypan Blue exclusion assays.
We observed a reduction of cell proliferation in MDA-MB468 breast and HT29 colon carcinoma cell lines.

Test [3] has as its system m-p53 His273 inhibition on p73 transcription activity. Kind of test: Transactivation test with pLUC-BAX reporter in transiently transfected H1299 cells. Type of test: cell-based, human. The note with it: peptides 20 μM each. As for the experimental part: (A) MDA-MB-468 (5×10^5) cells have been transfected using a lipofectamine containing mixture, βgal expression vector, which normalizes transfection efficiency, and SIMPI peptide (20 μM). Total cellular lysates (1 mg), have been immunoprecipitated with antibodies directed against p73 and immunoglobulins (IgG). Immunoprecipitates and an aliquot (50 μg) of total lysate after 12% acrylamide gel electrophoretic run have been transferred on nitrocellulose membrane and labelled with antibodies shown in the figure. (B) MDA-MB-468 cells, have been transfected using SIMP1 and SIMP5,6. peptides. Successively, cells have been washed and stimulated with 3 μM Adriamycin. Total obtained lysates (30 μg) have been assayed for the expression of PARP and BAX apoptotic proteins. Lysate has been normalized by assaying γ-tubulin expression. (C-D). Transactivation tests have been carried out by transient transfection of H1299 cells using a mixture containing lipofectamine, SIMP1, SIMP5,6 indicated plasmids (20 μM each) together with pLUC-BAX reporter vector. To each reaction mixture an equal amount of […] expression vector was added, in order to normalize the transfection efficiency. […]
To this end, we have analyzed the ability in blocking the His273 p53 induced inhibition on transcription activity. […]

The subject of test [4] is MDA-MB-468 cells (His-273 p53 mutation). The test is described as follows: Transactivation test (pLUC-BAX, pLUC-p21) in Adriamycin treated MDA-MB-468 cells. Format: cell-based, human. The note with it: MDA-MB-468, 3 μM Adriamycin 24 hours post-transfection, luciferase reporter. As for the experimental part:
MDA-MB-468 cells have been transfected using a mixture containing lipofectamine, pLUC-BAX plasmid, β-galactosidase expression vector, SIMP1 and SIMP control peptides. The cells, 24 hours post-transfection, have been treated with 3 μM Adriamycin.
MDA-MB-468 cells have been transfected using a mixture containing lipofectamine, pLUC-BAX plasmid, pLUC-p21, β-galactosidase expression vector, SIMP1 peptides and SIMP1M and SIMP1KO derived mutant thereof. The cells, 24 hours post-transfection, have been treated with 3 μM Adriamicyn and then processed.
SKBR3, HT-29, MDA-MB-468 cell lines have been transfected with Lipofectamine 2000 according to the supplier instructions (InVitrogen).
Cells (1.5×10^5) have been transiently transfected using SIMP peptides, expression plasmids and reporter constructs as internal controls for transfection efficiency. After the transfection, SKBR3, HT-29 and MDA-MB-468 have been incubated with 3 μM ADR over 24 hours. Cells have been washed with cold PBS and re-suspended in lysis buffer (Promega) and incubated for 10 min at room temp. Insoluble material has been centrifuged and luciferase activity has been determined using a commercial kit with a luminometer (Turner).
A general note: In a reporter assay the amount or activity of a reporter protein is the signal.

In the next test the target is T1, m-p53His-273/p73 complex (Homo sapiens, UniProt P04637, R273H).
T1 construct: Total cellular lysates (1 mg), have been immunoprecipitated with antibodies directed against p73; endogenous in cells; host or cells: MDA-MB-468
The test is described as follows: Coprecipitation (immunoprecipitation) test of the m-p53/p73 complex in MDA-MB-468 cells. Format: cell-based. The note with it: His-273 mutation, peptide 20 μM, anti-p73 immunoprecipitation. As for the experimental part:
(§1) (A) MDA-MB-468 (5×10^5) cells have been transfected using a lipofectamine containing mixture, βgal expression vector, which normalizes transfection efficiency, and SIMPI peptide (20 μM). Total cellular lysates (1 mg), have been immunoprecipitated with antibodies directed against p73 and immunoglobulins (IgG). Immunoprecipitates and an aliquot (50 μg) of total lysate after 12% acrylamide gel electrophoretic run have been transferred on nitrocellulose membrane and labelled with antibodies shown in the figure. (B) MDA-MB-468 cells, have been transfected using SIMP1 and SIMP5,6. peptides. Successively, cells have been washed and stimulated with 3 μM Adriamycin. Total obtained lysates (30 μg) have been assayed for the expression of PARP and BAX apoptotic proteins. Lysate has been normalized by assaying γ-tubulin expression. (C-D). Transactivation tests have been carried out by transient transfection of H1299 cells using a mixture containing lipofectamine, SIMP1, SIMP5,6 indicated plasmids (20 μM each) together with pLUC-BAX reporter vector. To each reaction mixture an equal amount of […] expression vector was added, in order to normalize the transfection efficiency.
The cell extracts have been processed in a lysis buffer containing 50 mm Tris HCl pH 8, 100 mM NaCl, 10% glycerol, 1% Triton X-100, 1 mM EDTA, 100 mM NaF, MgCl2, 1 mM PMSF, protease and phosphatase inhibitors. Then extracts have been sonicated and centrifuged at 14.000 rpm for 10 min for the debris removal.
50 μg of solubilised proteins have been separated by electrophoresis on 10 or 15% SDS-polyacrylamide gel. Western blot analysis has been carried out using anti-p53 primary antibodies (DO1 Calbiochem), rabbit anti-PARP, rabbit polyclonal anti-Bax, anti-p21 and anti-tubulin monoclonal antibodies (Calbiochem). […] Immunolabelled lanes have been detected using chemiluminescence analysis (Pierce). […]
In order to evaluate the activity of SIMPI peptide and SIMP1KO and SIMP1M derivatives the ability in disrupting the oncogenic m-p53His-273/p73 complex has been analysed.

In the next test the test system is MDA-MB-468 cells. Kind of test: Apoptotic tests (PARP and BAX expression, Western blot) after Adriamycin. Format: cell-based, human. The conditions noted are these: MDA-MB-468, 3 μM Adriamycin. As to the method: as §1
50 μg of solubilised proteins have been separated by electrophoresis on 10 or 15% SDS-polyacrylamide gel. Western blot analysis has been carried out using anti-p53 primary antibodies (DO1 Calbiochem), rabbit anti-PARP, rabbit polyclonal anti-Bax, anti-p21 and anti-tubulin monoclonal antibodies (Calbiochem). Goat anti-mouse and goat anti-rabbit horse peroxidase conjugated secondary antibodies (Amersham) have been used for the expression analyses. Immunolabelled lanes have been detected using chemiluminescence analysis (Pierce).
To this end cell viability and apoptotic tests (FIG. 1B, FIG. 4 B-C) on MDA-MB468 breast carcinoma have been carried out.
Background: A western blot detects proteins with antibodies after separation by electrophoresis.

The test system of another test is SW480 and MDA-MB-468. The conditions noted are these: cell lines containing other types of mutation (SW480, MDA-MB-468); cited from earlier work.
For test [5], the system named is SKBR3 tumour lines, containing his-175 mutation. The note with it: SKBR3, his-175 mutation; cited from earlier work.

Take “FQQSSTAASATW (SEQ ID NO1 wherein K is substituted by A) [SIMP1KO]”: the “tumour growth (tumour size) in vivo” value in the test with HT29 cells was “tumour growth similar to non treated control”. Moreover, the “activity on p53 mutant categories (His-175, His-273)” value in test [1] was “displays no activity on both mutant categories”. The “reaction with GST-p53 fusion proteins (dot blot, anti-p53 DO1)” value with GST-p53 His175 was “no reaction was observed”.

Regarding “FQQSSTARSATW (SEQ ID NO1 wherein k is substituted by R) [SIMP1M]”, the “cell proliferation in vitro” value in [2] is recorded as “reduce the cell proliferation in vitro”. For the same sequence, the “tumour growth (tumour size) in vivo” value with HT29 cells is “meaningful reduction of the growth (tumour size)”. Also, in [1], the “specificity for p53 mutation type” value is given as “display specificity for His-273 mutation containing tumours” and the “activity on p53 mutant categories (His-175, His-273)” value is “displays the same, although increased, functions”. Moreover, in [1] (mutations other than His-273), the “activity on tumour cell lines containing different mutation types” value is “has no activity on tumour cell lines containing different mutation types”. Besides, the “restoration of p73 transcription activity inhibited by m-p53 His273” value in [3] is reported as “modify mutated p53/p73 protein complex restoring p73 oncosuppressive functions”. Besides, in test [4], the “Adriamycin chemosensitivity / p73 transcription response” value is “increase Adriamycin chemosensitivty”. Besides, the “disruption of m-p53 His-273/p73 protein complex (p73 bound m-p53 amount)” value with m-p53His-273/p73 complex is “disrupt selectively m-p53/p73 complex”. The apoptotic response entry with MDA-MB-468 cells is “increase the apoptotic response to chemotherapeutic agents”.

For “GQRDFNEGQSAPA (p73 SIMP (aa 200-211) wherein Q has been inserted between G (aa200) and R (aa201)) [SIMP6]”, the “change in apoptotic response” value with SW480 and MDA-MB-468 was “do not induce changes in the apoptotic response”. Moreover, the “sensitivity to chemotherapeutic treatment” value in test [5] is “more sensitive to chemotherapeutic treatment”.

“VVKRCPNHE (p73 SIMP (aa 190-198)) [SIMP5]”: the “change in apoptotic response” value in the test with SW480 and MDA-MB-468 is “do not induce changes in the apoptotic response”. Also, in test [5], the “sensitivity to chemotherapeutic treatment” value is “more sensitive to chemotherapeutic treatment”.

With “VVKRCPNHELGRD (p73 SIMP (aa 190-202)) [SIMP5M, control peptide, reference compound]”, the “tumour growth (tumour size) in vivo” value in the test on HT29 cells is listed as “tumour growth similar to non treated control”. The “specificity for p53 mutation type” value in test [1] was “specific for His-175 mutation containing tumours”. Also, in the test with GST-p53 His175, the “reaction with GST-p53 fusion proteins (dot blot, anti-p53 DO1)” value is on record as “specifically reacts against his175 m-p53”.
